Experimental data published in ChEMBL document CHEMBL5291721, “A preclinical secondary pharmacology resource illuminates target-adverse drug reaction associations of marketed drugs” (Nat Commun, 2023).

Columns and labels:
Estrogen receptor = target: T1, Estrogen receptor (Homo sapiens, UniProt P03372)
T1 sequence (P03372 whole entry): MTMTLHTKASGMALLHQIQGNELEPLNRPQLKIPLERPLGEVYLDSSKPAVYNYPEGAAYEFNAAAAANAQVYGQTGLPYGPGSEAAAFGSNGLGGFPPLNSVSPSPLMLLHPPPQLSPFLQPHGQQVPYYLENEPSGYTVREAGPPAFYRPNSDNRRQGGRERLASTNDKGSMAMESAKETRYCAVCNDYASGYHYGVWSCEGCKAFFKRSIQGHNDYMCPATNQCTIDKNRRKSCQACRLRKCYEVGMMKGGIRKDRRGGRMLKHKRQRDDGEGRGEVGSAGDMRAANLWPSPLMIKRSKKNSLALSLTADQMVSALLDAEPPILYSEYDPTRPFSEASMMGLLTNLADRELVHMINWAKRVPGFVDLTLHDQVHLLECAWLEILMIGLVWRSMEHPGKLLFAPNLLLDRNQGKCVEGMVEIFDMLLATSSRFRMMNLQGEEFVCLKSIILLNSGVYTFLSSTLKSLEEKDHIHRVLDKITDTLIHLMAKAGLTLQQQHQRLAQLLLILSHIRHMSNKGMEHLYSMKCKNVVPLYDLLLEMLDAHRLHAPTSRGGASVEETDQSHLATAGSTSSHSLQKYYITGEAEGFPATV

[1] = target: T2, Muscarinic acetylcholine receptor M1 (Homo sapiens, UniProt P11229); assay type: functional, cell-based
T2 sequence (P11229 whole entry): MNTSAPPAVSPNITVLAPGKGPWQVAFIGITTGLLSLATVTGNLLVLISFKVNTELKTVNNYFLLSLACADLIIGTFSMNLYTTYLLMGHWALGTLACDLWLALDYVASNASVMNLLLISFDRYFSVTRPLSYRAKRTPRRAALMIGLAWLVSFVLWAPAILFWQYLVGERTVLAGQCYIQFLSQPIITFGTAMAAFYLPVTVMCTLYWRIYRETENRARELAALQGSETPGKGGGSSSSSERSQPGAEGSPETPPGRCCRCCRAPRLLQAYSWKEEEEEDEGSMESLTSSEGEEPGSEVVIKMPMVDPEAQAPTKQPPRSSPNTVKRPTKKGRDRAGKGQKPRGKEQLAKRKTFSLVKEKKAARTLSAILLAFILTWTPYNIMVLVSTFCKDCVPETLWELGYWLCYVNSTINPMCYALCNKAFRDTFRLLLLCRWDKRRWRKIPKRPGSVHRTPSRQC

[2] = target: T3, 5-hydroxytryptamine receptor 3A (Homo sapiens, UniProt P46098); assay type: functional
T3 sequence (P46098 whole entry): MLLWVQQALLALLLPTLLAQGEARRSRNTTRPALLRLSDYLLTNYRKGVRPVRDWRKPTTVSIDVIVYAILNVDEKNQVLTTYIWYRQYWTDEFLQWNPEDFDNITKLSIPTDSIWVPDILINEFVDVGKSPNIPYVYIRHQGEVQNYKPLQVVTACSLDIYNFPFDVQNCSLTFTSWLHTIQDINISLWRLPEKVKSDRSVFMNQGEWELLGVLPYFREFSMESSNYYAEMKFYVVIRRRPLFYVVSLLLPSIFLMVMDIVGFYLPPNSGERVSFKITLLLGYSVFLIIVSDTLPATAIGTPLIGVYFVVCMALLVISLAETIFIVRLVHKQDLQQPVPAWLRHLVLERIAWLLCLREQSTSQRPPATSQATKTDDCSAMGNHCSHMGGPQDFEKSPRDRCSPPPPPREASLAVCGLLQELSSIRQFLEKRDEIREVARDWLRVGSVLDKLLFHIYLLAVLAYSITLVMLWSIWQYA

D(3) dopamine receptor = D(3) dopamine receptor (Homo sapiens, UniProt P35462)
D(3) dopamine receptor, sequence (P35462 whole entry): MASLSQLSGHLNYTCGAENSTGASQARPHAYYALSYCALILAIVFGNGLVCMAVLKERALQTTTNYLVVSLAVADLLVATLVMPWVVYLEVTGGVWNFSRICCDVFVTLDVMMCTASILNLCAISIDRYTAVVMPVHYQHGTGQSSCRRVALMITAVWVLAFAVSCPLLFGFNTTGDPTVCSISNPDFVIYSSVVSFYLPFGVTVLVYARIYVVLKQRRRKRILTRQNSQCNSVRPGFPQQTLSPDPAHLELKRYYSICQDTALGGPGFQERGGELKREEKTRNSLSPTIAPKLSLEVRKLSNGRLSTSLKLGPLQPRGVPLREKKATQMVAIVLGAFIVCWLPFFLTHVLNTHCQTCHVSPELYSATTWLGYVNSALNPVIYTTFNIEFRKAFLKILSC

[3] = target: cGMP-inhibited 3',5'-cyclic phosphodiesterase 3A (Homo sapiens, UniProt Q14432); assay type: functional
cGMP-inhibited 3',5'-cyclic phosphodiesterase 3A, sequence (Q14432 whole entry): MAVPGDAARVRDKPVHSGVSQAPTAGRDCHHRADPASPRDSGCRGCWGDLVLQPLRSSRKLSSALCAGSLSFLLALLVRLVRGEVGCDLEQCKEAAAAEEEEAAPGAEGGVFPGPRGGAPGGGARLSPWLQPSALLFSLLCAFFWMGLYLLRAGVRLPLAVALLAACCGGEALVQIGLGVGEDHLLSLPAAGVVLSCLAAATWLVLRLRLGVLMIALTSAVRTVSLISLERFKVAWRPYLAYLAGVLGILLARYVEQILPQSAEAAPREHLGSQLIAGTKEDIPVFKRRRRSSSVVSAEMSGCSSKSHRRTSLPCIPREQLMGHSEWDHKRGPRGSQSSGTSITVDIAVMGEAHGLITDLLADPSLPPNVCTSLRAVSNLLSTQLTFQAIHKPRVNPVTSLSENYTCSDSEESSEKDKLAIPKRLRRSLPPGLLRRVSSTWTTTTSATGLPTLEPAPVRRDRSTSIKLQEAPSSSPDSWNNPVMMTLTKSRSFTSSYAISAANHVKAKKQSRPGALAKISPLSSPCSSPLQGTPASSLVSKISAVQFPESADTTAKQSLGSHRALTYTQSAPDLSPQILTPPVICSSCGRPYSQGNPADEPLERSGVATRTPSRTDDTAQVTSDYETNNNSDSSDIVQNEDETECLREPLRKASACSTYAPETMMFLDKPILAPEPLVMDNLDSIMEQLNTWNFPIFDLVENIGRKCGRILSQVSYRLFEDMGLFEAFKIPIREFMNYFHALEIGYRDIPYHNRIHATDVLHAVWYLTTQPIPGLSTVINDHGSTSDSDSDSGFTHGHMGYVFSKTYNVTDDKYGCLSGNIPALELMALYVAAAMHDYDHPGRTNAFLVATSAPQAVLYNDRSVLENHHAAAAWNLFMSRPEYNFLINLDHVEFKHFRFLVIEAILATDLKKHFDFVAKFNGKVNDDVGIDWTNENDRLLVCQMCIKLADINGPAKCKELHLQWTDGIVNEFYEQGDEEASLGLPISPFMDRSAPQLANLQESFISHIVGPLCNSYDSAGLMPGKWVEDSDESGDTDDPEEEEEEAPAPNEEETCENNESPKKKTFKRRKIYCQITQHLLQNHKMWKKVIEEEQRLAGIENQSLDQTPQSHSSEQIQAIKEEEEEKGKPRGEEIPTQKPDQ

Glucocorticoid receptor = target: T4, Glucocorticoid receptor (Homo sapiens, UniProt P04150)
T4 sequence (P04150 whole entry): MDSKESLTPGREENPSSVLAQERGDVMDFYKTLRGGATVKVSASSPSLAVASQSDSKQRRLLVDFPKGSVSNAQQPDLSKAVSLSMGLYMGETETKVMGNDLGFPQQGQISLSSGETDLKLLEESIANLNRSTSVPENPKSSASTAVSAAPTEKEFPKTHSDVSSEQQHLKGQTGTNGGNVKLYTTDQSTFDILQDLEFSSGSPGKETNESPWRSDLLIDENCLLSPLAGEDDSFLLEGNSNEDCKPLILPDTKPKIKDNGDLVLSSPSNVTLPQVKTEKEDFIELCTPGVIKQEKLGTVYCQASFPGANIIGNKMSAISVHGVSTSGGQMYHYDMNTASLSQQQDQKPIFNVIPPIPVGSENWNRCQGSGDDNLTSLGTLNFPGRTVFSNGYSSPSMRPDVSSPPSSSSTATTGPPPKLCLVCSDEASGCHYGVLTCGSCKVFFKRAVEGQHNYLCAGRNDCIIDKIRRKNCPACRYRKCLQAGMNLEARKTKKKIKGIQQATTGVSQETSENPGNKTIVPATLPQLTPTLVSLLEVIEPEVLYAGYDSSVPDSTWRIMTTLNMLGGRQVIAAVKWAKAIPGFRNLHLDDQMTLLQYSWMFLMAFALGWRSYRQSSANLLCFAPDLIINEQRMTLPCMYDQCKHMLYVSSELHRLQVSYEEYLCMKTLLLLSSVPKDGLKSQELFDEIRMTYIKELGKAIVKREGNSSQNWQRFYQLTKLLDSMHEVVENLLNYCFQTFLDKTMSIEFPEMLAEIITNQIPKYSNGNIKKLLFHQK

Thromboxane A2 receptor = target: T5, Thromboxane A2 receptor (Homo sapiens, UniProt P21731)
T5 sequence (P21731 whole entry): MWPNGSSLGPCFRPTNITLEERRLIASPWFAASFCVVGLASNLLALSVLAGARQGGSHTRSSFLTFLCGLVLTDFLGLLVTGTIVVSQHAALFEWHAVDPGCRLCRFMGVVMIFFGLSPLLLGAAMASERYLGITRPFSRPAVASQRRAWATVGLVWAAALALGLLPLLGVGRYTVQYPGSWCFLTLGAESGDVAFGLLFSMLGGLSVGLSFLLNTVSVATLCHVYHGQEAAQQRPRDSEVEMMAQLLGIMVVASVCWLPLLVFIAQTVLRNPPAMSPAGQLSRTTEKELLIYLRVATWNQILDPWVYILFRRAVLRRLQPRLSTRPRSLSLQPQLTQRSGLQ

Mu-type opioid receptor = Mu-type opioid receptor (Homo sapiens, UniProt P35372); assay: biochemical; assay type: functional
Mu-type opioid receptor, sequence (P35372 whole entry): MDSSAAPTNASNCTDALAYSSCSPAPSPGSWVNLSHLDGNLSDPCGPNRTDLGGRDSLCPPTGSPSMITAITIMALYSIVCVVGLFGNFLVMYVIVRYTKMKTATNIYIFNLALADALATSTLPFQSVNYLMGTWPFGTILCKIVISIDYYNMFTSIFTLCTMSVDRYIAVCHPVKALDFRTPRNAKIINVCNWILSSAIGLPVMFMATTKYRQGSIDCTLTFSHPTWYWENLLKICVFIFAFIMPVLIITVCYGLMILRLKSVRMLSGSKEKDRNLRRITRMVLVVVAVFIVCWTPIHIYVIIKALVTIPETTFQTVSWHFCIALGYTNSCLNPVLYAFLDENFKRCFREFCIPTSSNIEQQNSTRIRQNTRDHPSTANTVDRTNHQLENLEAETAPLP

Histamine H2 receptor = Histamine H2 receptor (Homo sapiens, UniProt P25021); assay type: functional, cell-based
Histamine H2 receptor, sequence (P25021 whole entry): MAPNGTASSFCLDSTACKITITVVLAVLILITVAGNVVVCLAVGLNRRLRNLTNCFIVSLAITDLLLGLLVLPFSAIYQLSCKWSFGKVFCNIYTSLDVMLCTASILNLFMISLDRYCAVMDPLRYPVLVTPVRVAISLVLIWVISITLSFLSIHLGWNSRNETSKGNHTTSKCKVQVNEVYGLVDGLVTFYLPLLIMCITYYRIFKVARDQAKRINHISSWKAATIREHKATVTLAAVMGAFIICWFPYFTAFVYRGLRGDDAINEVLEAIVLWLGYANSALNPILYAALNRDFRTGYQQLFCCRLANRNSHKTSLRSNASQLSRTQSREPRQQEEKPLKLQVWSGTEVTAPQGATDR
Note: assay procedure not described here.

Compound	AC50 (Estrogen receptor) [µM]	AC50 [1] [µM]	AC50 [2] [µM]	AC50 (D(3) dopamine receptor) [µM]	AC50 [3] [µM]	AC50 (Glucocorticoid receptor) [µM]	AC50 (Thromboxane A2 receptor) [µM]	AC50 (Mu-type opioid receptor) [µM]	AC50 (Histamine H2 receptor) [µM]
Cc1cc2c(cc1S(N)(=O)=O)S(=O)(=O)CCC2	> 30	> 30	–	–	–	–	–	–	–
C[C@H](N[C@@H](CCc1ccccc1)C(=O)O)C(=O)N1Cc2ccccc2C[C@H]1C(=O)O	> 30	> 30	–	–	–	–	–	–	–
O=C(O)[C@@H]1C[C@@H](O)CN1	> 30	> 30	–	–	–	–	–	–	–
CC1(C)S[C@@H]2[C@H](/N=C/N3CCCCCC3)C(=O)N2[C@H]1C(=O)O [AMDINOCILLIN]	> 30	> 30	–	–	–	–	–	–	–
CC(=O)[C@]1(N)Cc2c(O)c3c(c(O)c2[C@@H](O[C@H]2C[C@H](O)[C@H](O)CO2)C1)C(=O)c1ccccc1C3=O [AMRUBICIN]	> 30	> 3	–	–	–	–	–	–	–
NC(=O)[C@@H]1CC[C@@H]2CN1C(=O)N2OS(=O)(=O)O [AVIBACTAM]	> 30	> 30	–	–	–	–	–	–	–
CC(=O)OC[C@H]1O[C@@H](n2ncc(=O)[nH]c2=O)[C@H](OC(C)=O)[C@@H]1OC(C)=O [AZARIBINE]	> 30	–	–	–	–	–	–	–	–
O=C(/C=C/c1cccc(S(=O)(=O)Nc2ccccc2)c1)NO [BELINOSTAT]	27.9	–	> 30	> 30	> 30	> 30	> 30	–	–
CC(C)(C)NC(=O)N[C@H](C(=O)N1C[C@H]2[C@@H]([C@H]1C(=O)NC(CC1CCC1)C(=O)C(N)=O)C2(C)C)C(C)(C)C (some centres not stated) [BOCEPREVIR]	> 30	> 30	–	–	–	–	–	–	–
O=C(O)COCCN1CCN(C(c2ccccc2)c2ccc(Cl)cc2)CC1 (configuration not stated) [CETIRIZINE]	> 30	–	> 30	–	> 30	–	> 30	–	–
NC[C@H]1CC[C@H](C(=O)Oc2ccc(CCC(=O)O)cc2)CC1 [CETRAXATE]	> 30	–	> 30	> 30	> 30	–	–	> 30	> 30
C=C1CC[C@H](O)C/C1=C/C=C1\CCC[C@]2(C)[C@@H]([C@H](C)CCCC(C)C)CC[C@@H]12 [CHOLECALCIFEROL]	> 30	–	–	–	–	–	–	–	–
C[C@H](CCC(=O)O)[C@H]1CC[C@H]2[C@@H]3[C@H](O)C[C@@H]4C[C@H](O)CC[C@]4(C)[C@H]3C[C@H](O)[C@]12C [CHOLIC ACID]	> 30	–	–	–	–	–	–	–	–
Cc1ncc2c(c1O)COC2c1ccc(Cl)cc1 (configuration not stated) [CICLETANINE]	> 30	> 30	–	–	–	–	–	–	–
Cc1cn([C@H]2O[C@@H](CO)[C@H](O)[C@H]2F)c(=O)[nH]c1=O [CLEVUDINE]	–	> 30	–	–	–	–	–	–	–
CC(=O)[C@H]1CC[C@H]2[C@@H]3C=CC4=CC(=O)CC[C@@]4(C)[C@@H]3CC[C@]12C [DYDROGESTERONE]	–	5.06	–	–	–	–	–	–	–

Compound	AC50 (Estrogen receptor) [µM]	AC50 [1] [µM]	AC50 [2] [µM]	AC50 (D(3) dopamine receptor) [µM]	AC50 [3] [µM]	AC50 (Glucocorticoid receptor) [µM]	AC50 (Thromboxane A2 receptor) [µM]	AC50 (Mu-type opioid receptor) [µM]	AC50 (Histamine H2 receptor) [µM]
CC(=O)O[C@H]1Cc2ccccc2N(C(N)=O)c2ccccc21 [ESLICARBAZEPINE ACETATE]	> 30	> 30	–	–	–	–	–	–	–
C[C@@H]1C[C@H]2[C@@H]3C[C@H](F)C4=CC(=O)C=C[C@]4(C)[C@@]3(F)[C@@H](O)C[C@]2(C)[C@@]1(OC(=O)c1ccco1)C(=O)SCF [FLUTICASONE FUROATE]	–	> 30	> 30	> 30	> 30	–	> 10	–	> 10
Cc1ccc(S(=O)(=O)NC(=O)NC2CCCCC2)cc1 [GLYCYCLAMIDE]	> 30	> 30	–	–	–	–	–	–	–
CC(=O)OCC(=O)[C@@]1(O)CC[C@H]2[C@@H]3CCC4=CC(=O)CC[C@]4(C)[C@H]3[C@@H](O)C[C@@]21C [HYDROCORTISONE ACETATE]	–	17.7	–	–	–	–	–	–	–
COc1cccc(C(=O)CCN[C@@H](C)[C@H](O)c2ccccc2)c1 [OXYFEDRINE]	–	> 30	–	–	–	–	–	–	–
NNCCc1ccccc1 [PHENELZINE]	> 30	–	–	–	–	–	–	–	–
Cc1cccc(C)c1NC(=O)CC12CCCN1CCC2 [PILSICAINIDE]	–	–	> 30	> 30	> 30	> 30	> 30	> 30	> 30
CN[C@@H](C)[C@@H](O)c1ccccc1 [PSEUDOEPHEDRINE]	–	–	> 30	> 10	> 30	> 30	> 30	> 30	> 10
CCCN1CC(NS(=O)(=O)N(CC)CC)CC2Cc3c(O)cccc3CC21 (configuration not stated) [QUINAGOLIDE]	–	–	> 30	0.0028	> 30	> 30	> 30	> 30	> 30
COC(=O)[C@H]1[C@H]2C[C@@H]3c4[nH]c5cc(OC)ccc5c4CCN3C[C@H]2C[C@@H](OC(=O)c2cc(OC)c(OC)c(OC)c2)[C@@H]1OC [RESERPINE]	–	–	> 30	> 30	> 30	> 10	> 10	> 30	> 30
O=C1OC(OC(=O)c2cccnc2Nc2cccc(C(F)(F)F)c2)c2ccccc21 (configuration not stated) [TALNIFLUMATE]	–	–	> 30	> 30	> 30	> 30	> 30	> 30	> 30
O=S1(=O)CCN(CN2CCS(=O)(=O)NC2)CN1 [TAUROLIDINE]	> 30	–	> 30	27	> 30	> 10	> 30	> 30	> 30
Cc1ccc(C(=O)C(C)CN2CCCCC2)cc1 (configuration not stated) [TOLPERISONE]	> 30	–	–	–	–	–	–	–	–
COc1ccc2c(C(=S)N(C)CC(=O)O)cccc2c1C(F)(F)F [TOLRESTAT]	> 30	–	–	–	–	–	–	–	–
CCOC(=O)c1c(CSc2ccccc2)n(C)c2cc(Br)c(O)c(CN(C)C)c12 [UMIFENOVIR]	–	–	> 30	6.8	> 30	> 30	> 30	> 30	> 30
